Results taken from patent publication US20260191968A1, “PROTAC DEGRADERS OF MLLT1 AND/OR MLLT3” (DARK BLUE THERAPEUTICS LTD, priority 2024, published 2026).

Biological target: T1, MLLT1 (Homo sapiens, UniProt Q03111)
T1 construct: host or cells: MV4-11
T1 sequence (Q03111 1-559): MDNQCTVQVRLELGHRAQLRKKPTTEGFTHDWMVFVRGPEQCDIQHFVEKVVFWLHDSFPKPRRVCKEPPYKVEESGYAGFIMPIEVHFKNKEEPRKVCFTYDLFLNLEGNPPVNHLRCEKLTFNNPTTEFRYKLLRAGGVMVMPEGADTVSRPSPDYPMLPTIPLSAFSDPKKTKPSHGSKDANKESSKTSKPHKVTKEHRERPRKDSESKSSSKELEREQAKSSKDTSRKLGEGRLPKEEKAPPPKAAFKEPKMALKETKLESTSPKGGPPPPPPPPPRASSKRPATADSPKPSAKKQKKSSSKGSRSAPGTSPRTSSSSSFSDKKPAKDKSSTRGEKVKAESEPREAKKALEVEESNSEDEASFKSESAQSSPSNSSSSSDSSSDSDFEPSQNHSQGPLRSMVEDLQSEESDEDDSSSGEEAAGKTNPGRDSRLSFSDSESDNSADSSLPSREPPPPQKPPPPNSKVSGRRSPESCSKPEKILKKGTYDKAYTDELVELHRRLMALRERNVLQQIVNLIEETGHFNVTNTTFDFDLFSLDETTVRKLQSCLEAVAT
Experiment: MLLT1 degradation assay in MV4-11 cells (JESS chemiluminescent detection), three concentrations, 24 h
Assay type: cell-based
Details: with respect to DMSO control
Experimental: MLLT1 degradation efficacy of compounds were tested in an automated chemiluminescent detection system (JESS, Cat #004-650). […] 10 mM DMSO stocks were prepared, and cells were treated with three concentrations of test compounds viz. 1000, 100 and 10 nM at a final DMSO concentration of 0.1% and incubated for 24 h at 37° C., 5% CO2. […] Post run, data were analysed using “Compass for SW” software for chemiluminescent detection. The peak area for each band was used for the calculation of MLLT1 degradation with respect to DMSO control. Data is shown as “MLLT1% degradation”.

Row | SMILES | MLLT1% Degradation @ 0.01 μM | MLLT1% Degradation @ 0.1 μM | MLLT1% Degradation @ 1 μM
1 | CN1CCC[C@@H]1c1cc2cnc(NC(=O)c3ccc(CCCC#Cc4cccc(C(=O)N[C@H]5CCC(=O)NC5=O)n4)cc3)cc2[nH]1 [Example 97, N—((S)-2,6-dioxopiperidin-3-yl)-6-(5-(4-((2-((R)-1-methylpyrrolidin-2-yl)-1H-pyrrolo[3,2-c]pyridin-6-yl)carbamoyl)phenyl)pent-1-yn-1-yl)picolinamide] | C (Category C: 25% ≤ C < 50% degradation) | B (Category B: 50% ≤ B < 75% degradation) | B (Category B: 50% ≤ B < 75% degradation)
2 | CN1CCC[C@@H]1c1cc2cnc(NC(=O)c3ccc(N4CCC(CCCCC#Cc5cccc6c5CN(C5CCC(=O)NC5=O)C6=O)CC4)nc3)cc2[nH]1 (stereo partly drawn) [Example 188, 6-(4-(6-(2-(2,6-dioxopiperidin-3-yl)-1-oxoisoindolin-4-yl)hex-5-yn-1-yl)piperidin-1-yl)-N-(2-((R)-1-methylpyrrolidin-2-yl)-1H-pyrrolo[3,2-c]pyridin-6-yl)nicotinamide] | C (Category C: 25% ≤ C < 50% degradation) | B (Category B: 50% ≤ B < 75% degradation) | B (Category B: 50% ≤ B < 75% degradation)
3 | CN1CCC[C@@H]1c1cc2cnc(NC(=O)c3ccc(OCCC4CCN(c5cccc6c5CN(C5CCC(=O)NC5=O)C6=O)CC4)cc3)cc2[nH]1 (stereo in doubt) [Example 80, 4-(2-(1-(2-((rel-S)-2,6-dioxopiperidin-3-yl)-1-oxoisoindolin-4-yl)piperidin-4-yl)ethoxy)-N-(2-((R)-1-methylpyrrolidin-2-yl)-1H-pyrrolo[3,2-c]pyridin-6-yl)benzamide] | A (Category A: A ≥ 75% degradation) | A (Category A: A ≥ 75% degradation) | A (Category A: A ≥ 75% degradation)
4 | Cc1cc(OC2CCN(c3ccc(C(=O)Nc4cc5[nH]c([C@H]6CCCN6C)cc5cn4)cn3)CC2)ccc1-c1cccc2c1CN(C1CCC(=O)NC1=O)C2=O (stereo partly drawn) [Example 196, 6-(4-(4-(2-(2,6-dioxopiperidin-3-yl)-1-oxoisoindolin-4-yl)-3-methylphenoxy)piperidin-1-yl)-N-(2-((R)-1-methylpyrrolidin-2-yl)-1H-pyrrolo[3,2-c]pyridin-6-yl)nicotinamide] | D (Category D: D < 25% degradation) | B (Category B: 50% ≤ B < 75% degradation) | A (Category A: A ≥ 75% degradation)
5 | CN1CCC[C@@H]1c1cc2cnc(NC(=O)c3ccc(N4CCC5(CC4)CCN(c4cccc6c4CN(C4CCC(=O)NC4=O)C6=O)CC5)cc3F)cc2[nH]1 (stereo partly drawn) [Example 202, 4-(9-(2-(2,6-dioxopiperidin-3-yl)-1-oxoisoindolin-4-yl)-3,9-diazaspiro[5.5]undecan-3-yl)-2-fluoro-N-(2-((R)-1-methylpyrrolidin-2-yl)-1H-pyrrolo[3,2-c]pyridin-6-yl)benzamide] | D (Category D: D < 25% degradation) | C (Category C: 25% ≤ C < 50% degradation) | C (Category C: 25% ≤ C < 50% degradation)
6 | CN1CCC[C@@H]1c1cc2cnc(NC(=O)c3ccc(OC4CC5(CCN(c6cccc7c6CN(C6CCC(=O)NC6=O)C7=O)CC5)C4)cc3F)cc2[nH]1 (stereo partly drawn) [Example 200, 4-((7-(2-(2,6-dioxopiperidin-3-yl)-1-oxoisoindolin-4-yl)-7-azaspiro[3.5]nonan-2-yl)oxy)-2-fluoro-N-(2-((R)-1-methylpyrrolidin-2-yl)-1H-pyrrolo[3,2-c]pyridin-6-yl)benzamide] | B (Category B: 50% ≤ B < 75% degradation) | A (Category A: A ≥ 75% degradation) | A (Category A: A ≥ 75% degradation)
7 | CN1CCC[C@@H]1c1cc2cnc(NC(=O)c3ccc(OCCC4CCN(c5cccc6c5CN(C5CCC(=O)NC5=O)C6=O)CC4)cc3F)cc2[nH]1 (stereo in doubt) [Example 173, 4-(2-(1-(2-((rel-R)-2,6-dioxopiperidin-3-yl)-1-oxoisoindolin-4-yl)piperidin-4-yl)ethoxy)-2-fluoro-N-(2-((R)-1-methylpyrrolidin-2-yl)-1H-pyrrolo[3,2-c]pyridin-6-yl)benzamide] | B (Category B: 50% ≤ B < 75% degradation) | A (Category A: A ≥ 75% degradation) | A (Category A: A ≥ 75% degradation)
8 | CN1CCC[C@@H]1c1cc2cnc(NC(=O)c3ccc(N4CCC(OCC5CCN(c6cccc7c6C(=O)N(C6CCC(=O)NC6=O)C7=O)CC5)CC4)cc3)cc2[nH]1 (stereo partly drawn) [Example 151, 4-(4-((1-(2-(2,6-dioxopiperidin-3-yl)-1,3-dioxoisoindolin-4-yl)piperidin-4-yl)methoxy)piperidin-1-yl)-N-(2-((R)-1-methylpyrrolidin-2-yl)-1H-pyrrolo[3,2-c]pyridin-6-yl)benzamide] | C (Category C: 25% ≤ C < 50% degradation) | B (Category B: 50% ≤ B < 75% degradation) | A (Category A: A ≥ 75% degradation)
9 | CN1CCC[C@@H]1c1cc2cnc(NC(=O)c3ccc(N4CCC(OCC5CCN(c6cccc7c6CN(C6CCC(=O)NC6=O)C7=O)CC5)CC4)cc3)cc2[nH]1 (stereo partly drawn) [Example 146, 4-(4-((1-(2-(2,6-dioxopiperidin-3-yl)-1-oxoisoindolin-4-yl)piperidin-4-yl)methoxy)piperidin-1-yl)-N-(2-((R)-1-methylpyrrolidin-2-yl)-1H-pyrrolo[3,2-c]pyridin-6-yl)benzamide] | B (Category B: 50% ≤ B < 75% degradation) | B (Category B: 50% ≤ B < 75% degradation) | B (Category B: 50% ≤ B < 75% degradation)
10 | CN1CCC[C@@H]1c1cc2cnc(NC(=O)c3ccc(OC4CCN(CC5CCN(c6cc7c(cc6F)C(=O)N(C6CCC(=O)NC6=O)C7=O)CC5)CC4)cc3)cc2[nH]1 (stereo partly drawn) [Example 184, 4-((1-((1-(2-(2,6-dioxopiperidin-3-yl)-6-fluoro-1,3-dioxoisoindolin-5-yl)piperidin-4-yl)methyl)piperidin-4-yl)oxy)-N-(2-((R)-1-methylpyrrolidin-2-yl)-1H-pyrrolo[3,2-c]pyridin-6-yl)benzamide] | B (Category B: 50% ≤ B < 75% degradation) | A (Category A: A ≥ 75% degradation) | A (Category A: A ≥ 75% degradation)
11 | CN1CCC[C@@H]1c1cc2cnc(NC(=O)c3ccc(OCC4CCN(c5cccc6c5CN(C5CCC(=O)NC5=O)C6=O)CC4)cc3F)cc2[nH]1 (stereo partly drawn) [Example 214, 4-((1-(2-(2,6-dioxopiperidin-3-yl)-1-oxoisoindolin-4-yl)piperidin-4-yl)methoxy)-2-fluoro-N-(2-((R)-1-methylpyrrolidin-2-yl)-1H-pyrrolo[3,2-c]pyridin-6-yl)benzamide] | A (Category A: A ≥ 75% degradation) | A (Category A: A ≥ 75% degradation) | A (Category A: A ≥ 75% degradation)
